This is an account of results in publication PMC8356907 (Current analytical chemistry, 2021).

The target in assay [1] is T1, recombinant human caspase 3 (Homo sapiens, UniProt P42574).
T1 sequence (P42574 29-175 limits assumed): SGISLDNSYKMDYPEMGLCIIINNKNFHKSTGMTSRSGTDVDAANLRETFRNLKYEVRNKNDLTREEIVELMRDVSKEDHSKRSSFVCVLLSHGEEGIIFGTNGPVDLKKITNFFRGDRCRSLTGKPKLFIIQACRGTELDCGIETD
T1 sequence (P42574 176-277 limits assumed): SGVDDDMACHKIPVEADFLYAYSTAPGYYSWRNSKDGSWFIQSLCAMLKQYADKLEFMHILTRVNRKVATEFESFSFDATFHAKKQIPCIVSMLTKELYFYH
The settings on record: cited from earlier work; for kcat: standard fluorogenic substrates; for Km: standard substrates.

In assay [2] the target is human integrin αvβ3 purified protein (Homo sapiens, UniProt P05106+P06756). The experiment in a line: Solid-phase RGD receptor-binding assay.
The next assay has as its system A549 cells. Kind of assay: Live cell NIR fluorescence microscopy. In kind it is cell-based, human. As to conditions: 100 μM inhibitor, paclitaxel-treated A549 cells, 4 h.
Assay [3] has as its target human integrin αvβ3 purified protein (human, UniProt P06756 31-1048; P05106 27-788). Kind of assay: radioligand binding.
Assay [4] concerns the target T2, human integrin αvβ3 purified protein (human), P06756.
T2 chain 1: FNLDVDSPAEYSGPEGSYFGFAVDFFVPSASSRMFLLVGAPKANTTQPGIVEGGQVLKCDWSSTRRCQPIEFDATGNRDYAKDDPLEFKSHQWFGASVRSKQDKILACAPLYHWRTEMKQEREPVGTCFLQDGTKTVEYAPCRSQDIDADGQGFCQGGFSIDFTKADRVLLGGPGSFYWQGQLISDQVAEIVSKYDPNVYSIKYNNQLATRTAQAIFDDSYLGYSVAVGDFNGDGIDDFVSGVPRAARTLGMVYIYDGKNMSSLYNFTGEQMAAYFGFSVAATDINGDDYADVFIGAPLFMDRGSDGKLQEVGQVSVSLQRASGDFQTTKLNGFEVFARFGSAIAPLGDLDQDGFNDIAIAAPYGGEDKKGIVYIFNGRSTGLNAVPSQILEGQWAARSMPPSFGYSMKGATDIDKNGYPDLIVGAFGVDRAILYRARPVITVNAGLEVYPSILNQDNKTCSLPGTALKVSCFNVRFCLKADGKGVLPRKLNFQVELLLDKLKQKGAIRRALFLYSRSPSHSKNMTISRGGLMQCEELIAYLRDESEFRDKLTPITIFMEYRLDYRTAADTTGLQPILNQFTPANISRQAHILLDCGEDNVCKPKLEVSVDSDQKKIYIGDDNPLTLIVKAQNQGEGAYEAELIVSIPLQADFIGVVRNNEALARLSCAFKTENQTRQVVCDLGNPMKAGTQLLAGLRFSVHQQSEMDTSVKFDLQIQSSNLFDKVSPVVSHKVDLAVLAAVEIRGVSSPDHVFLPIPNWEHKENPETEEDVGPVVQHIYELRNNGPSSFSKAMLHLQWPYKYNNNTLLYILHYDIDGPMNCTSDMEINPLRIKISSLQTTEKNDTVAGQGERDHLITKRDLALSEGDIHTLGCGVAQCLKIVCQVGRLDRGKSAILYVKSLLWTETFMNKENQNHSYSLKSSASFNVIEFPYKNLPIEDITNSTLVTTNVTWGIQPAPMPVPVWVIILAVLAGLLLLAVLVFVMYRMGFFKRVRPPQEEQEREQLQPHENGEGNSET
T2 chain 2: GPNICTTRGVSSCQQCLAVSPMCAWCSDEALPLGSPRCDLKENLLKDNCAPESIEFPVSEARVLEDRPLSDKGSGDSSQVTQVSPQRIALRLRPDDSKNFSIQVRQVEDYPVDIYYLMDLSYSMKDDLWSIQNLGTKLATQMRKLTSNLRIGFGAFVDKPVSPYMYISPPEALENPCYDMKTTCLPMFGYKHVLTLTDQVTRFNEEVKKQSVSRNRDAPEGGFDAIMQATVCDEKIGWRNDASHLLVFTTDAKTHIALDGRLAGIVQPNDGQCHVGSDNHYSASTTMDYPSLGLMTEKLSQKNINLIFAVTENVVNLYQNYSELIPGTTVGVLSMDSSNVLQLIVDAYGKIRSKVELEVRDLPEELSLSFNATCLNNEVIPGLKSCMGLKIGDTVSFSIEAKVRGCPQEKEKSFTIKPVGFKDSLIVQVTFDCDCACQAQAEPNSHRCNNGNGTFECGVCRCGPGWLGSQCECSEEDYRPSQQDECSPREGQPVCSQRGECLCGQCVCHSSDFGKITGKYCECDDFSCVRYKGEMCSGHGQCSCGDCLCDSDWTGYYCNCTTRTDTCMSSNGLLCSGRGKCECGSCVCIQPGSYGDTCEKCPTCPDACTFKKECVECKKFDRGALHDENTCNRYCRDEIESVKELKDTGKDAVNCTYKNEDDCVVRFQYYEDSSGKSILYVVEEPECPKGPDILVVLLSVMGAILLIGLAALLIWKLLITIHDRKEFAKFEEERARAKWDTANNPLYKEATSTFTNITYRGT
The experiment in a line: radioligand binding. The settings on record: remark: other sources report otherwise.

Square brackets hold non-standard residues; d marks the D form.

A word on the kcat: it is the maximal rate divided by the concentration of active sites. One may read the Km as the substrate concentration at which the rate is half of its maximum. In the case of Ac-DEVD-AMC, in assay [1], the catalytic constant (kcat) was 0.75 s⁻¹ and the Km was 9.7 µM.
On to Ac-DEVD-pNA, for which, in assay [1], the turnover number (kcat) was 2.4 s⁻¹ and the Km is 11 µM.
What is called Ki is the equilibrium dissociation constant of an inhibitor or competing ligand from its target. Turning to Cypate-c(RGDfK) [LS167], the inhibitory constant (Ki) in assay [2] (read-out: Ki (nM ± s.d.), corrected Ki, modified Cheng-Prusoff equation, 125I-c(RGDyK) tracer) was found to be 1.62 ± 0.491 nM.
For the molecule Z-Asp(Ome)-Glu(Ome)-Val-Asp(OMe)-FMK, the “effect of caspase-3 inhibitor on LS422 fluorescence activation” value in the assay on A549 cells is “inability to activate the LS422 fluorescence”.
cypate-octreotate: the “decrease in the binding affinity” value in assay [2] (non-RGD peptide control) is reported as over 100 fold.
One may read the Kd as the concentration at which binding is half-saturated. In turn, cyclo(RGD[dY]K) (also: 125I label, site not given here) [125I-c(RGDyK)] showed an equilibrium dissociation constant (Kd) in assay [3] of 0.4 nM.
For cyclo(RGD[dF]K) (also: cypate label, position not given here) [LS167 (Cypate-c(RGDfK))], in assay [4], the inhibition constant Ki is 1.62 nM.
